Results taken from paper PMC11234063, “Eugenol and lidocaine inhibit voltage-gated Na^+ channels from dorsal root ganglion neurons with different mechanisms” (Frontiers in Pharmacology, 2024).
Values joined by “and” are separate entries in the source; they are usually repeats but may differ in a detail not shown here. Equal values may be shown once. Read-outs that look alike come from different tables or passages of the source.

Tests used:
[1] = system: total INa (VGSCs of DRG neurons); experiment: Inhibition in depolarization time series at 2 and 5 Hz, total INa; type: cell-based, rat; settings: EUG 2 mM, LID 1 mM
[2] = system: total INa (VGSCs of DRG neurons); experiment: INa inactivation time constants during test pulse, total INa; type: cell-based, rat
[3] = system: total INa (VGSCs naturally expressed on dorsal root ganglion sensory neurons); experiment: Dose–response inhibition of total INa peak, whole-cell patch clamp; type: cell-based, rat
[4] = system: VGSCs; set-up: method as in Clarkson et al., 1988; Sheets et al., 2010; settings: 10-s conditioning pulse; ref Clarkson et al., 1988; Sheets et al., 2010; cited from earlier work
[5] = system: TTX-R INa (VGSCs of DRG neurons); type: cell-based, rat; settings: EUG 2 mM, LID 1 mM
[6] = system: total INa (VGSCs of DRG neurons); experiment: Steady-state inactivation, 100-ms conditioning pre-pulses, total INa; type: cell-based, rat; settings: EUG 2 mM, LID 1 mM
[7] = system: total INa (VGSCs of DRG neurons); settings: EUG 2 mM, LID 1 mM
[8] = system: TTX-R INa (VGSCs of DRG neurons); type: cell-based, rat
[9] = system: TTX-R INa (VGSCs of DRG neurons); experiment: Slow inactivation entry, three-pulse protocol, TTX-R INa; type: cell-based, rat
[10] = system: persistent total INa (DRG neurons); experiment: Persistent total INa at the end of 50-ms depolarizing pulses; type: cell-based, rat; settings: EUG 2 mM, LID 1 mM
[11] = system: total INa (VGSCs of DRG neurons); experiment: Slow inactivation entry, three-pulse protocol, total INa; type: cell-based, rat
[12] = system: total INa (VGSCs of DRG neurons); experiment: Voltage dependence of Na+ conductance activation (I-V and G-V curves), total INa; type: cell-based, rat; settings: EUG 2 mM, LID 1 mM
[13] = system: TTX-R INa (VGSCs of DRG neurons); experiment: Voltage dependence of Na+ conductance activation (I-V and G-V curves), TTX-R INa; type: cell-based, rat; settings: EUG 2 mM, LID 1 mM
[14] = system: TTX-R INa (VGSCs of DRG neurons); type: cell-based, rat; settings: EUG 2 mM, LID 1 mM; remark: listed apart in the source
[15] = system: TTX-R INa (VGSCs of DRG neurons); type: cell-based, rat; remark: listed apart in the source
[16] = individual cells, during exposure to EUG 2 mM or LID 1 mM

CCN(CC)CC(=O)Nc1c(C)cccc1C [LID, lidocaine]
Fractional inhibition, 2 Hz, 1st pulse [1]: 0.46 ± 0.034 (n = 7) | Fractional inhibition, 2 Hz, 20th pulse [1]: 0.54 ± 0.044 (n = 7) | Fractional inhibition, 5 Hz, 1st pulse [1]: 0.47 ± 0.021 (n = 5) | Fractional inhibition, 5 Hz, 20th pulse [1]: 0.81 ± 0.055 (n = 5) | Fractional current after blockade, 2 Hz, 1st pulse, individual cells ([1]; individual cells): 0.42 and 0.6 and 0.65 and 0.46 and 0.55 and 0.48 and 0.66 | Fractional current after blockade, 2 Hz, 20th pulse, individual cells ([1]; individual cells): 0.57 and 0.34 and 0.45 and 0.42 and 0.58 and 0.31 and 0.51 | Fractional current after blockade, 5 Hz, 1st pulse, individual cells ([1]; individual cells): 0.73 and 0.48 and 0.51 (2×) and 0.60 | Fractional current after blockade, 5 Hz, 20th pulse, individual cells ([1]; individual cells): 0.53 and 0.06 and 0.07 and 0.25 and 0.26 | Effect on inactivation time constants [2]: unaffected | Pre-inhibition of total INa ([3]; LID at 0.5 mM): 25% | Reversibility of inhibition after drug washout ([3]; total INa): fully reversible | Dose response curves' data, Average (fractional current), LID (EUG 1.3 mM) ([3]; total INa, LID 0.1 mM in the presence of EUG 1.3 mM): 0.98 | Dose response curves' data, Average (fractional current), LID (EUG 1.3 mM) ([3]; total INa, LID 0.3 mM in the presence of EUG 1.3 mM): 0.63 | Dose response curves' data, Average (fractional current), LID (EUG 1.3 mM) ([3]; total INa, LID 1 mM in the presence of EUG 1.3 mM): 0.45 | Dose response curves' data, Average (fractional current), LID (EUG 1.3 mM) ([3]; total INa, LID 3 mM in the presence of EUG 1.3 mM): 0.19 | Dose response curves' data, Average (fractional current), LID (EUG 1.3 mM) ([3]; total INa, LID 10 mM in the presence of EUG 1.3 mM): 0.08 | Hill coefficient ([3]; total INa, drug alone): 1 and 1.02 ± 0.169 | Dose response curves' data, Average (fractional current) ([3]; total INa, drug at 0.001 mM): 1.00 | Dose response curves' data, Average (fractional current) ([3]; total INa, drug at 0.03 mM): 0.95 | Dose response curves' data, Average (fractional current) ([3]; total INa, drug at 0.1 mM): 0.89 | Dose response curves' data, Average (fractional current) ([3]; total INa, drug at 0.3 mM): 0.79 | Dose response curves' data, Average (fractional current) ([3]; total INa, drug at 1 mM): 0.67 | Dose response curves' data, Average (fractional current) ([3]; total INa, drug at 3 mM): 0.29 | Dose response curves' data, Average (fractional current) ([3]; total INa, drug at 10 mM): 0.09 | IC50 ([3]; total INa, holding −110 mV, test +20 mV, drug alone, read-out: IC50): 1420 ± 169 µM | Time series of INa blockade, Average (normalized current) ([3]; total INa, time 15 sec, drug exposure): 0.63 | Time series of INa blockade, Average (normalized current) ([3]; total INa, time 20 sec, drug exposure): 0.63 | Time series of INa blockade, Average (normalized current) ([3]; total INa, time 25 sec, drug exposure): 0.63 | Time series of INa blockade, Average (normalized current) ([3]; total INa, time 30 sec, recovery): 0.99 | Time series of INa blockade, Average (normalized current) ([3]; total INa, time 35 sec, recovery): 1.01 | Time series of INa blockade, Average (normalized current) ([3]; total INa, time 40 sec, recovery): 1.01 | Shift of the available curve [4]: 10 mV | Fractional inhibition, 2 Hz, 1st pulse [5]: 0.40 ± 0.025 (n = 8) | Fractional inhibition, 2 Hz, 20th pulse [5]: 0.55 ± 0.040 (n = 8) | Fractional inhibition, 5 Hz, 1st pulse [5]: 0.37 ± 0.027 (n = 7) | Fractional inhibition, 5 Hz, 20th pulse [5]: 0.64 ± 0.054 (n = 7) | Fractional current after blockade, 2 Hz, 1st pulse, individual cells ([5]; individual cells): 0.58 and 0.49 and 0.64 and 0.53 and 0.56 and 0.59 and 0.67 and 0.68 | Fractional current after blockade, 2 Hz, 20th pulse, individual cells ([5]; individual cells): 0.3 (2×) and 0.5 and 0.51 and 0.46 and 0.57 and 0.50 and 0.41 | Fractional current after blockade, 5 Hz, 1st pulse, individual cells ([5]; individual cells): 0.55 and 0.51 and 0.68 (2×) and 0.62 and 0.69 | Fractional current after blockade, 5 Hz, 20th pulse, individual cells ([5]; individual cells): 0.18 and 0.15 and 0.34 and 0.50 and 0.42 | Shift of the steady-state inactivation curve, on average ([6]; 100-ms conditioning pulse): −5 mV | Max slope-inact [6]: −10.2 ± 0.50 (n = 6) ns mV/e-fold | V1/2-inact [6]: −50.6 ± 3.04 (n = 6) mV | Max slope-inact in individual cells ([6]; individual cells): -10.01 mV/efold and -11.35 mV/efold and -9.163 mV/efold and -11.45 mV/efold and -10.7 mV/efold | V1/2-inact in individual cells ([6]; individual cells): -42.62 mV and -59.61 mV and -54.7 mV and -48.47 mV and -56.32 mV | Time constant of the inhibiting effect increase with P1 duration at −70 mV [7]: 709 ms and ~700 ms | Hill coefficient [8]: 0.67 ± 0.088 | Reversibility of inhibition after drug washout [8]: fully reversible | Dose response curves' data, Average (fractional current) ([8]; drug at 0.01 mM): 0.82 | Dose response curves' data, Average (fractional current) ([8]; drug at 0.1 mM): 0.78 | Dose response curves' data, Average (fractional current) ([8]; drug at 0.3 mM): 0.55 | Dose response curves' data, Average (fractional current) ([8]; drug at 1 mM): 0.38 | Dose response curves' data, Average (fractional current) ([8]; drug at 3 mM): 0.26 | Dose response curves' data, Average (fractional current) ([8]; drug at 10 mM): 0.06 | Dose response curves' data, Average (fractional current) ([8]; drug at 30 mM): 0.00 | IC50 ([8]; holding −110 mV, test +20 mV, read-out: IC50): 440 ± 87 µM | Time series of INa blockade, Average (normalized current) ([8]; time 15 sec, drug exposure): 0.700 | Time series of INa blockade, Average (normalized current) ([8]; time 20 sec, drug exposure): 0.688 | Time series of INa blockade, Average (normalized current) ([8]; time 25 sec, drug exposure): 0.698 | Time series of INa blockade, Average (normalized current) ([8]; time 30 sec, recovery): 0.954 | Time series of INa blockade, Average (normalized current) ([8]; time 35 sec, recovery): 0.981 | Time series of INa blockade, Average (normalized current) ([8]; time 40 sec, recovery): 1.000 | Fast inactivation entry time constant ([9]; EUG 2 mM, LID 1 mM): 33.05 ± 11.57 ms | Fractional current when P1 = 2 m ([9]; EUG 2 mM, LID 1 mM): 0.76 ± 0.049 | Percent fast component (slow inactivation entry) ([9]; EUG 2 mM, LID 1 mM): 35.03 ± 6.913% | Slow inactivation entry time constant ([9]; EUG 2 mM, LID 1 mM): 287.01 ± 49.765 s | Slow inactivation state entry kinetics of INa, individual cells [9, 16]: 210.90 and 156.80 and 90.580 and 123.40 and 113.30 | Inhibition of persistent total INa after 50-ms depolarization [10]: fails to inhibit | Fast inactivation entry time constant ([11]; EUG 2 mM, LID 1 mM): 25.04 ± 10.996 ms | Fractional current when P1 = 2 m ([11]; EUG 2 mM, LID 1 mM): 0.62 ± 0.067 | Percent fast component (slow inactivation entry) ([11]; EUG 2 mM, LID 1 mM): 59.86 ± 4.320 % | Slow inactivation entry time constant ([11]; EUG 2 mM, LID 1 mM): 292.87 ± 117.879 s | Slow inactivation state entry kinetics of INa, individual cells [11, 16]: 84.13 and 39.12 and 7.878 and 39.45 and 54.65 | Max slope-act [12]: 5.4 ± 0.55 (n = 5) mV/e-fold | V1/2-act [12]: −15.6 ± 1.87 (n = 5) ns mV | Max slope-act in individual cells ([12]; individual cells): 3.305 mV/efold and 5.718 mV/efold and 5.241 mV/efold and 6.129 mV/efold and 6.443 mV/efold | V1/2-act in individual cells ([12]; individual cells): -10.84 mV and -17.68 mV and -19.58 mV and -11.29 mV and -18.64 mV | Max slope-act [13]: 7.6 ± 0.84 (n = 9) mV/e-fold | V1/2-act [13]: −15.3 ± 3.51 (n = 9) ns mV | Max slope-act in individual cells ([13]; individual cells): 2.416 mV/efold and 6.095 mV/efold and 7.402 mV/efold and 6.184 mV/efold and 9.974 mV/efold and 8.405 mV/efold and 10.98 mV/efold and 7.92 mV/efold and 8.84 mV/efold | V1/2-act in individual cells ([13]; individual cells): 2.959 mV and -9.166 mV and -6.571 mV and -19.84 mV and -6.716 mV and -25.02 mV and -21.81 mV and -25.87 mV and -25.3 mV | Shift of the steady-state inactivation curve, on average ([14]; 100-ms conditioning pulse): −4 mV | Max slope-inact [14]: −7.2 ± 1.24 (n = 9) ns mV/e-fold | V1/2-inact [14]: −32.6 ± 2.86 (n = 9) mV | Max slope-inact in individual cells ([14]; individual cells): -4.454 mV/efold and -5.078 mV/efold and -4.311 mV/efold and -4.855 mV/efold and -12.65 mV/efold and -5.321 mV/efold and -10.59 mV/efold and -13.14 mV/efold and -5.017 mV/efold | V1/2-inact in individual cells ([14]; individual cells): -13.3 mV and -32.45 mV and -43.07 mV and -41.77 mV and -33.88 mV and -29.54 mV and -30.3 mV and -34.82 mV and -34 mV | Effect on inactivation time constants [15]: unaffected
